Read-outs that look alike come from different tables or passages of the source. Marks after values point to notes of the source that are not given here.
How the values were obtained:
[1] = Cyclic voltammetry (formal potentials, Randles-Sevcik diffusion coefficients); format: physicochemical
Description: (§1) CV and EIS experiments were ran using a PalmSens4 potentiostat with the PSTrace software. Electrochemical experiments were performed in 1.0 M NaCl supporting electrolyte using 15 mM of active material at room temperature (18° C.). Formal potentials for the redox couples were estimated by taking the average potential between the cathodic and anodic peak. Diffusional behavior was investigated by varying the scan rate between 10-100 mV·s^−1 for the first electron reduction and 50-200 mV·s^−1 for the second electron reduction, and the diffusion constants of the reduced and oxidized states (D^R and D^O) were determined via the Randles-Sevcik equation assuming ideal reversible behavior (FIG. 12D). Potentiostatic EIS measurements were used for determination of a combined diffusional constant of the reduced and oxidized states (D^EIS) and of the standard electron kinetic rate constant (k^o). These EIS measurements were performed at the formal reduction potential (held for 30 seconds before measurement) in which the concentration of the two redox states at the electrode surface were assumed to be the same and equal to half of the initially prepared redox species concentration.
(§2) A glassy carbon working electrode (CH Instruments, 0.0707 cm^2), a saturated calomel reference electrode (SCE, CH Instruments, +0.241 V vs. SHE), and a platinum wire counter electrode were used for both CV and EIS measurements. The working electrode was polished with 1 μm, 0.3 μm, and 0.05 μm alumina slurry successively. All electrodes were rinsed with deionized water in between measurements.
CVs were taken at various scan rates in order to determine the diffusion coefficients via the Randles-Sevcik relation (Eqn. 1) where ip is the peak current in Amps, n is number of electrons transferred, F is Faraday's constant, A is electrode surface area in cm^2, C is the redox species concentration in mole·cm^−3, R is the ideal gas constant, T is temperature, D is the diffusion coefficient, and v is scan rate in V/s. The anodic peak current […] determines the diffusion coefficient of the reduced state (D^R) while the cathodic peak current (ip,a) determines the diffusion coefficient of the oxidized state (D^O). ip=0.4463n^3/2·F^3/2·A·C·R^−1/2·T^−1/2·D^1/2·v^1/2 Eqn. 1

[2] = Electrochemical impedance spectroscopy (EIS); format: physicochemical; conditions: for EIS D / EIS i^0 / EIS k^0: Example 2
Description: as §1, §2
Potentiostatic EIS measurements were taken at the formal potential in which the reduction and oxidation processes are at equilibrium and the concentrations of the reduced and oxidized states can be assumed equal. This permitted simple calculation of the standard kinetic rate constant (k^o) via Eqn. 2 where R is the ideal gas constant, T is temperature, n is number of electrons, RCT is the charge-transfer resistance, F is Faraday's constant, A is the electrode surface area in cm^2, and C is the concentration of either the oxidized or reduced form at the electrode surface in mole cm^−3 (which is assumed to be half of the initially prepared redox species concentration, C═C^O═C^R=0.5 Cinitial).
A combined diffusion coefficient of the reduced and oxidized state (D^EIS) can also be determined using Eqn. 3, where σ is the Warburg diffusional impedance variable and all other variables have the previously defined meaning.
RCT and σ can be determined by fitting the impedance spectrum to the ideal Randles equivalent circuit for a 3-electrode system where Ru is the uncompensated resistance between the working and reference electrode, RCT is the charge transfer resistance between the working electrode and the redox species, WD is the Warburg diffusional element, and CPE is the constant phase element that represents capacitive behavior of the working electrode.
The raw data was fitted based on this equivalent circuit using the Z-Fitting tool on the PSTrace software and with the Levenberg-Marquardt algorithm across the entire measured frequency range. For the second redox state, D2^EIS were 3.6×10^−6 cm^2·s^−1 and 3.8×10^−6 cm^2·s^−1 and k2^o were 0.13 cm·s^−1 and 0.23 cm·s^−1 for Dex-Vi and BTMAP-Vi, respectively.

[3] = Selemion DSV membrane; cited from earlier work
[4] = same electrolyte conditions; cited from earlier work
[5] = cited from earlier work; for Anolyte-limiting RFB Stability / RFB Viologen Molarity (1e^−): Table 1, comparison anolytes
Solubility in pure water = format: physicochemical; conditions: Example 2
Description: A measured amount of Dex-Vi was partially dissolved in pure water. The solution was then centrifuged. The supernatant was decanted, and the volume was measured. The remainder of the solid was dried in a vacuum oven and weighed. Finally, the weight of the remaining Dex-Vi was subtracted from the initial added mass to obtain the amount dissolved in the supernatant, permitting calculation of the maximum soluble concentration.

Viscosity (rheometer) = format: physicochemical; conditions: 1M, 25° C.
Description: Viscosity measurements were carried out using an Ares G2 rheometer (TA Instruments) with an advanced Peltier system at 25° C.

Degradation in 1M KOH = format: physicochemical
[6] = Table 1, MV; cited from earlier work
[7] = Table 1, MV; cited from earlier work; remark: listed apart in the source

Question: For `C[N+](C)(C)CCC[n+]1ccc(-c2cc[n+](CCC[N+](C)(C)C)cc2)cc1.[Cl-].[Cl-].[Cl-].[Cl-]` [BTMAP-Vi, bis(3-trimethylammonio)propyl viologen tetrachloride, reference compound], which “first electron formal potential (E1^0)” value ([1]; 15 mM in 1.0 M NaCl, 18° C.) is on record?
Answer: Its value is −0.349 V vs. SHE.

Question: And the “E1^0” value ([1]; Table 1)?
Answer: Its value is −0.349 V vs. SHE.

Question: What about the “E2^0” value ([1]; Table 1) of the same molecule?
Answer: Its value is −0.713 V vs. SHE.

Question: What about the “reduced state diffusion coefficient (D1^R)” value ([1]; first redox state, 3+ species) of the same molecule?
Answer: Its value is 2.7×10^−6 cm^2·s^−1.

Question: What about the “oxidized state diffusion coefficient (D1^O)” value ([1]; first redox state, 4+ species) of the same molecule?
Answer: Its value is 2.4×10^−6 cm^2·s^−1.

Question: What about the “D2^O” value ([1]; second redox state) of the same molecule?
Answer: Its value is 2.3×10^−6 cm^2·s^−1.

Question: What about the “D2^R” value ([1]; second redox state) of the same molecule?
Answer: The value was 2.5×10^−6 cm^2·s^−1.

Question: What about the “second electron formal potential (E2^0)” value ([1]; vs. SHE, 15 mM in 1.0 M NaCl, 18° C.) of the same molecule?
Answer: Its value is −0.713 V.

Question: And the “k1^0” value ([2]; Table 1)?
Answer: The value was 0.089 cm/s.

Question: What about the “combined diffusion coefficient (D1^EIS)” value ([2]; first reduction) of the same molecule?
Answer: Its value is 4.1×10^−6 cm^2·s^−1.

Question: What about the “standard rate constant (k1^0)” value ([2]; first reduction) of the same molecule?
Answer: The value was 0.089 cm/s.

Question: What about the “D2^EIS” value ([2]; second redox state) of the same molecule?
Answer: The value was 3.8×10^−6 cm^2·s^−1.

Question: What about the “k2^o” value ([2]; second redox state) of the same molecule?
Answer: The value was 0.23 cm/s.

Question: What about the “permeance, reported value” [3] of the same molecule?
Answer: The value was 6.7×10^−10 cm^2·s^−1.

Question: And the “reported symmetric cell decay rate” value [4]?
Answer: The value was 0.0016 % per day.

Question: And the “reported concentration when both electrons are utilized” value ([5]; DeBruler et al., 2017)?
Answer: The value was 0.25 M.

Question: What about the “Anolyte-limiting RFB Stability” value [5] of the same molecule?
Answer: The value was 36.5% decay/year.

Question: What about the “RFB Viologen Molarity (1e^−)” value [5] of the same molecule?
Answer: Its value is 1.5.

Question: Which “Water Solubility” value (Solubility in pure water) does the source give for `OCCCC[n+]1ccc(-c2cc[n+](CCCCO)cc2)cc1.[Cl-].[Cl-]` [ButOH-Vi] here?
Answer: The value was 1360 mM.

Question: And the “Viscosity at 1M, 25° C.” value (Viscosity (rheometer))?
Answer: The value was 1.6 cP.

Question: And the “EIS D” value [2]?
Answer: Its value is 2.36E−05 cm^2/s.

Question: What about the “EIS i^0” value [2] of the same molecule?
Answer: Its value is 1.25E−05 A.

Question: And the “EIS k^0” value [2]?
Answer: Its value is 0.000244 cm/s.

Question: Which results are given for `C[N+](C)(C)CC(O)C[n+]1ccc(-c2cc[n+](CC(O)CO)cc2)cc1.[Cl-].[Cl-].[Cl-]` (centres unmarked) [Dex-DiOH-Vi]?
Answer: Water Solubility (Solubility in pure water): 1730 mM; Viscosity at 1M, 25° C. (Viscosity (rheometer)): 3.9 cP; EIS D [2]: 5.562E−06 cm^2/s; EIS i^0 [2]: 6.20E−03 A; EIS k^0 [2]: 0.121 cm/s; Degradation in 1M KOH, k (Degradation in 1M KOH): 4.06e-06 s⁻¹

Question: Which “Water Solubility” value (Solubility in pure water) does the source give for `C[N+](C)(C)CC(O)C[n+]1ccc(-c2cc[n+](CC(O)CS(=O)(=O)[O-])cc2)cc1.[Cl-].[Cl-]` (centres unmarked) [Dex-SHOP-Vi] here?
Answer: Its value is 1270 mM.

Question: And the “EIS D” value [2]?
Answer: The value was 4.497E−06 cm^2/s.

Question: And the “EIS i^0” value [2]?
Answer: The value was 1.57E−03 A.

Question: And the “EIS k^0” value [2]?
Answer: Its value is 0.0307 cm/s.

Question: What does the source list for `O=S(=O)([O-])CC[n+]1ccc(-c2cc[n+](CC(O)CO)cc2)cc1.[Cl-]` (centres unmarked) [DiOH-EtS-Vi]?
Answer: Water Solubility (Solubility in pure water): 1260 mM; Viscosity at 1M, 25° C. (Viscosity (rheometer)): 2.9 cP; EIS D [2]: 8.134E−06 cm^2/s; EIS i^0 [2]: 7.76E−03 A; EIS k^0 [2]: 0.152 cm/s; Degradation in 1M KOH, k (Degradation in 1M KOH): 4.4e-06 s⁻¹

Question: For `O=S(=O)([O-])CC(O)C[n+]1ccc(-c2cc[n+](CC(O)CO)cc2)cc1.[Cl-]` (centres unmarked) [DiOH-SHOP-Vi], which “Water Solubility” value (Solubility in pure water) is on record?
Answer: Its value is <500 mM.

Question: And the “EIS D” value [2]?
Answer: The value was 5.419E−06 cm^2/s.

Question: And the “EIS i^0” value [2]?
Answer: The value was 4.06E−03 A.

Question: And the “EIS k^0” value [2]?
Answer: The value was 0.0794 cm/s.

Question: With `OCC(O)C[n+]1ccc(-c2cc[n+](CC(O)CO)cc2)cc1.[Cl-].[Cl-]` (centres unmarked) [DiOH-Vi] as the molecule, how does the “Water Solubility” value (Solubility in pure water) read?
Answer: Its value is 1990 mM.

Question: And the “Viscosity at 1M, 25° C.” value (Viscosity (rheometer))?
Answer: The value was 3.0 cP.

Question: And the “EIS D” value [2]?
Answer: Its value is 6.622E−06 cm^2/s.

Question: And the “EIS i^0” value [2]?
Answer: Its value is 1.14E−03 A.

Question: What about the “EIS k^0” value [2] of the same molecule?
Answer: The value was 0.0222 cm/s.

Question: And the “Degradation in 1M KOH, k” value (Degradation in 1M KOH)?
Answer: The value was 2.296e-06 s⁻¹.

Question: With `OCC[n+]1ccc(-c2cc[n+](CCO)cc2)cc1.[Cl-].[Cl-]` [EtOH-Vi] as the molecule, how does the “Water Solubility” value (Solubility in pure water) read?
Answer: Its value is 2510 mM.

Question: And the “Viscosity at 1M, 25° C.” value (Viscosity (rheometer))?
Answer: The value was 2.4 cP.

Question: And the “EIS D” value [2]?
Answer: The value was 9.868E−06 cm^2/s.

Question: And the “EIS i^0” value [2]?
Answer: The value was 4.53E−03 A.

Question: What about the “EIS k^0” value [2] of the same molecule?
Answer: The value was 0.0885 cm/s.

Question: With `O=S(=O)([O-])CC[n+]1ccc(-c2cc[n+](CCS(=O)(=O)[O-])cc2)cc1` [EtS-Vi] as the molecule, how does the “Water Solubility” value (Solubility in pure water) read?
Answer: Its value is 530 mM.

Question: And the “EIS D” value [2]?
Answer: Its value is 5.2921E−06 cm^2/s.

Question: And the “EIS i^0” value [2]?
Answer: Its value is 3.47E−03 A.

Question: And the “EIS k^0” value [2]?
Answer: The value was 0.0677 cm/s.

Question: For `C[n+]1ccc(-c2cc[n+](C)cc2)cc1` [MV], which “E1^0” value [6] is on record?
Answer: The value was −0.450/NA V vs. SHE.

Question: What about the “k1^0” value [7] of the same molecule?
Answer: Its value is 0.00028 cm/s.

Question: What about the “Anolyte-limiting RFB Stability” value [5] of the same molecule?
Answer: The value was >547.5%* % decay/year.

Question: What about the “RFB Viologen Molarity (1e^−)” value [5] of the same molecule?
Answer: Its value is 0.5.

— patent US12291513B2, “Pyridinium derivatives made by hydrothermal synthesis for use as anolytes in electrochemical cells” (Wisconsin Alumni Research Foundation, priority 2021, dated 2025)
